According to patent publication US20260297070A1, “CYCLIC [COMPOUND LEFT OUT] WRN INHIBITORS” (Nimbus Wadjet, Inc., priority 2023, published 2026):
pIC50: −log10 of the molar value.

molecular target: T1, human Werner helicase (WRN-BV08, Uniprot Q14191, amino acids 517-1235 with L1074F point mutation) (Homo sapiens, UniProt Q14191, L1074F); experiment: WRN (BV08) ADP-Glo Assay; assay type: biochemical; conditions: 0.15 nM WRN, 5 μM ATP, 0.1 nM DNA duplex, 15 min preincubation, 60 min at 25° C., pH 7.5, 1% DMSO; read-out: ADP-Glo_hWRN_IC50
T1 construct: Uniprot Q14191, amino acids 517-1235 with L1074F point mutation; TEV-cleavable 8×His (C, cleaved yes); made in house; host or cells: Sf9 insect cells (baculovirus)
Procedure, shortened: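 Percent inhibition was normalised to DMSO (max) and 20 μM NSC-617145 (min) controls from ADP-Glo luminescence, and IC50 values came from a four-parameter fit. The reaction ran 60 min at 25 °C with 0.15 nM WRN, 5 μM ATP and 0.1 nM duplex DNA.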

T1 sequence (Q14191 with tags, fused parts or gaps L1074F limits assumed): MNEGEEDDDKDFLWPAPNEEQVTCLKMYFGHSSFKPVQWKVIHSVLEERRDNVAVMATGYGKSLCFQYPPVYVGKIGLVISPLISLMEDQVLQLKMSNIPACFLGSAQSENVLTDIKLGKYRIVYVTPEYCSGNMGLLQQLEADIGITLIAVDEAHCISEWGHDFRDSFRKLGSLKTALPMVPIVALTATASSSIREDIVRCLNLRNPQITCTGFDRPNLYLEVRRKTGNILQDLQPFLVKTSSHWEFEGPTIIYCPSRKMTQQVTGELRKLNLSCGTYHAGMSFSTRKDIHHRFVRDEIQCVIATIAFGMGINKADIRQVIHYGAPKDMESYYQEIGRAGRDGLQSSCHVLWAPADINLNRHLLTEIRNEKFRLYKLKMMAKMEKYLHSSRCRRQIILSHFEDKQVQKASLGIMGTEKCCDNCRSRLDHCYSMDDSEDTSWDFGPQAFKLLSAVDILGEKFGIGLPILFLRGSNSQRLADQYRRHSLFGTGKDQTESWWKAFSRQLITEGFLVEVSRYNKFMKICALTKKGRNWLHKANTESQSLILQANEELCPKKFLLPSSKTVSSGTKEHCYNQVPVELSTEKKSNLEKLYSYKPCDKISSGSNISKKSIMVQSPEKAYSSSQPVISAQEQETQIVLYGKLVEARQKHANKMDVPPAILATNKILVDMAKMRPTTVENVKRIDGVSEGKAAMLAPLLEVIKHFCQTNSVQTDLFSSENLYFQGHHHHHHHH

`COc1cc(CN(C(=O)Cc2c(F)cc(-n3cccc3C)cc2F)C2C=CS(=O)(=O)C2)ccn1` (stereo not drawn) [I-241, 2-[2,6-difluoro-4-(2-methyl-1H-pyrrol-1-yl)phenyl]-N-(1,1-dioxo-2,3-dihydro-1lambda6-thiophen-3-yl)-N-[(2-methoxypyridin-4-yl)methyl]acetamide] and `COc1cc(CN(C(=O)Cc2ccc(-n3cccc3C)cn2)C2C=CS(=O)(=O)C2)ccn1` (stereo not drawn) [I-250, N-(1,1-dioxo-2,3-dihydro-1lambda6-thiophen-3-yl)-N-[(2-methoxypyridin-4-yl)methyl]-2-[5-(2-methyl-1H-pyrrol-1-yl)pyridin-2-yl]acetamide] fall in the same range of pIC50: 5.00 to 5.30 for the first, 5.00 to 5.30 for the second.

`O=C(Cc1ccc(-n2cccc2)cc1)N(Cc1ccc(F)cc1F)C1C=CS(=O)(=O)C1` (stereo not drawn) [I-242, N-[(2,4-difluorophenyl)methyl]-N-(1,1-dioxo-2,3-dihydro-1lambda6-thiophen-3-yl)-2-[4-(1H-pyrrol-1-yl)phenyl]acetamide] and `O=C(Cc1ccc(-n2cccc2)cc1)N(Cc1ccccc1F)C1C=CS(=O)(=O)C1` (stereo not drawn) [I-257, N-(1,1-dioxo-2,3-dihydro-1lambda6-thiophen-3-yl)-N-[(2-fluorophenyl)methyl]-2-[4-(1H-pyrrol-1-yl)phenyl]acetamide] fall in the same range of pIC50: 5.00 to 5.30 for the first, 5.00 to 5.30 for the second.

`O=C(Cc1ccc(-n2cccc2)cc1)N(Cc1cccc2cccnc12)C1C=CS(=O)(=O)C1` (stereo not drawn) [I-243, N-(1,1-dioxo-2,3-dihydro-1lambda6-thiophen-3-yl)-2-[4-(1H-pyrrol-1-yl)phenyl]-N-[(quinolin-8-yl)methyl]acetamide] and `O=C(Cc1ccc(-n2cccc2)cc1)N(Cc1ccc2nccnc2c1)C1C=CS(=O)(=O)C1` (stereo not drawn) [I-251, N-(1,1-dioxo-2,3-dihydro-1lambda6-thiophen-3-yl)-2-[4-(1H-pyrrol-1-yl)phenyl]-N-[(quinoxalin-6-yl)methyl]acetamide] fall in the same range of pIC50: 5.00 to 5.30 for the first, 5.00 to 5.30 for the second.

`O=C(C1Cc2cc(-n3cccc3)ccc2O1)N(Cc1ccncc1)C1C=CS(=O)(=O)C1` (stereo not drawn) [I-244, N-(1,1-dioxo-2,3-dihydro-1lambda6-thiophen-3-yl)-N-[(pyridin-4-yl)methyl]-5-(1H-pyrrol-1-yl)-2,3-dihydro-1-benzofuran-2-carboxamide] and `CC(C(=O)N(Cc1ccncc1)C1C=CS(=O)(=O)C1)c1ccc(-n2cccc2)cc1` (stereo not drawn) [I-265, N-(1,1-dioxo-2,3-dihydro-1lambda6-thiophen-3-yl)-N-[(pyridin-4-yl)methyl]-2-[4-(1H-pyrrol-1-yl)phenyl]propanamide] fall in the same range of pIC50: 5.00 to 5.30 for the first, 5.00 to 5.30 for the second.

`CC1CC1c1ccc(CC(=O)N(Cc2ccncc2)C2C=CS(=O)(=O)C2)cc1` (stereo not drawn) [I-245, N-(1,1-dioxo-2,3-dihydro-1lambda6-thiophen-3-yl)-2-[4-(2-methylcyclopropyl)phenyl]-N-[(pyridin-4-yl)methyl]acetamide] and `O=C(Cc1ccc(C(F)(F)F)cc1)N(Cc1ccncc1)C1C=CS(=O)(=O)C1` (stereo not drawn) [I-254, N-(1,1-dioxo-2,3-dihydro-1lambda6-thiophen-3-yl)-N-[(pyridin-4-yl)methyl]-2-[4-(trifluoromethyl)phenyl]acetamide] fall in the same range of pIC50: 5.00 to 5.30 for the first, 5.00 to 5.30 for the second.

`COc1cc(CN(C(=O)C(OC)c2ccc(C(F)(F)F)cc2)C2C=CS(=O)(=O)C2)ccn1` (stereo not drawn) [I-246, N-(1,1-dioxo-2,3-dihydro-1lambda6-thiophen-3-yl)-2-methoxy-N-[(2-methoxypyridin-4-yl)methyl]-2-[4-(trifluoromethyl)phenyl]acetamide] and `O=C(Cc1ccc(C(F)(F)F)cc1F)N(Cc1ccncc1)C1C=CS(=O)(=O)C1` (stereo not drawn) [I-260, N-(1,1-dioxo-2,3-dihydro-1lambda6-thiophen-3-yl)-2-[2-fluoro-4-(trifluoromethyl)phenyl]-N-[(pyridin-4-yl)methyl]acetamide] fall in the same range of pIC50: 5.00 to 5.30 for the first, 5.00 to 5.30 for the second.

`COc1cc(CN(C(=O)Cc2ccc(-c3ccc(F)cc3)cc2)C2C=CS(=O)(=O)C2)on1` (stereo not drawn) [I-247, N-(1,1-dioxo-2,3-dihydro-1lambda6-thiophen-3-yl)-2-{4′-fluoro-[1,1′-biphenyl]-4-yl}-N-[(3-methoxy-1,2-oxazol-5-yl)methyl]acetamide] and `O=C(Cc1ccc(-c2cccc(F)c2F)cc1)N(Cc1ccncc1)C1C=CS(=O)(=O)C1` (stereo not drawn) [I-261, 2-{2′,3′-difluoro-[1,1′-biphenyl]-4-yl}-N-(1,1-dioxo-2,3-dihydro-1lambda6-thiophen-3-yl)-N-[(pyridin-4-yl)methyl]acetamide] fall in the same range of pIC50: 5.00 to 5.30 for the first, 5.00 to 5.30 for the second.

`O=C(Cc1ccc(-c2ccsc2)cc1)N(Cc1ccncc1)C1C=CS(=O)(=O)C1` (stereo not drawn) [I-248, N-(1,1-dioxo-2,3-dihydro-1lambda6-thiophen-3-yl)-N-[(pyridin-4-yl)methyl]-2-[4-(thiophen-3-yl)phenyl]acetamide] and `O=C(Cc1ccc(OC(F)(F)F)cc1)N(Cc1ccncc1)C1C=CS(=O)(=O)C1` (stereo not drawn) [I-252, N-(1,1-dioxo-2,3-dihydro-1lambda6-thiophen-3-yl)-N-[(pyridin-4-yl)methyl]-2-[4-(trifluoromethoxy)phenyl]acetamide] fall in the same range of pIC50: 5.00 to 5.30 for the first, 5.00 to 5.30 for the second.

`O=C(C1Cc2cc(-c3ccc(F)cc3)ccc21)N(Cc1ccncc1)C1C=CS(=O)(=O)C1` (stereo not drawn) [I-249, N-(1,1-dioxo-2,3-dihydro-1lambda6-thiophen-3-yl)-3-(4-fluorophenyl)-N-[(pyridin-4-yl)methyl]bicyclo[4.2.0]octa-1(6),2,4-triene-7-carboxamide] and `CC(C(=O)N(Cc1ccncc1)C1C=CS(=O)(=O)C1)c1ccc(-c2ccc(F)cc2)cc1` (stereo not drawn) [I-266, N-(1,1-dioxo-2,3-dihydro-1lambda6-thiophen-3-yl)-2-{4′-fluoro-[1,1′-biphenyl]-4-yl}-N-[(pyridin-4-yl)methyl]propanamide] fall in the same range of pIC50: 5.00 to 5.30 for the first, 5.00 to 5.30 for the second.

`CNC(=O)c1ccc(CN(C(=O)Cc2ccc(-n3cccc3)cc2)C2C=CS(=O)(=O)C2)cc1` (stereo not drawn) [I-255, 4-{[N-(1,1-dioxo-2,3-dihydro-1lambda6-thiophen-3-yl)-2-[4-(1H-pyrrol-1-yl)phenyl]acetamido]methyl}-N-methylbenzamide] and `CN(C)C(=O)c1ccc(CN(C(=O)Cc2ccc(-n3cccc3)cc2)C2C=CS(=O)(=O)C2)cc1` (stereo not drawn) [I-259, 4-{[N-(1,1-dioxo-2,3-dihydro-1lambda6-thiophen-3-yl)-2-[4-(1H-pyrrol-1-yl)phenyl]acetamido]methyl}-N,N-dimethylbenzamide] fall in the same range of pIC50: 5.00 to 5.30 for the first, 5.00 to 5.30 for the second.

Compared with `CS(=O)(=O)c1ccc(CN(C(=O)Cc2ccc(-n3cccc3)cc2)C2C=CS(=O)(=O)C2)cc1` (stereo not drawn) [I-256, N-(1,1-dioxo-2,3-dihydro-1lambda6-thiophen-3-yl)-N-[(4-methanesulfonylphenyl)methyl]-2-[4-(1H-pyrrol-1-yl)phenyl]acetamide], `O=C(Cc1ccc(-n2cccc2)cc1)N(Cc1ccccc1)C1C=C(Br)S(=O)(=O)C1` (stereo not drawn) [I-269, 2-(4-(1H-pyrrol-1-yl)phenyl)-N-benzyl-N-(5-bromo-1,1-dioxido-2,3-dihydrothiophen-3-yl)acetamide] is lower in pIC50: 5.00 to 5.30 for the first, 4.30 to 5.00 for the second.

`O=C(Cc1ccc(CC(F)(F)F)cc1)N(Cc1ccncc1)C1C=CS(=O)(=O)C1` (stereo not drawn) [I-263, N-(1,1-dioxo-2,3-dihydro-1lambda6-thiophen-3-yl)-N-[(pyridin-4-yl)methyl]-2-[4-(2,2,2-trifluoroethyl)phenyl]acetamide] and `NCCc1cccn1-c1ccc(CC(=O)N(Cc2ccccc2)C2C=CS(=O)(=O)C2)cc1` (stereo not drawn) [I-268, 2-{4-[2-(2-aminoethyl)-1H-pyrrol-1-yl]phenyl}-N-benzyl-N-(1,1-dioxo-2,3-dihydro-1lambda6-thiophen-3-yl)acetamide] fall in the same range of pIC50: 5.00 to 5.30 for the first, 5.00 to 5.30 for the second.
